# Measured values: the NIST ThermoML archive (doi:10.1016/j.jct.2009.03.009)
# ± gives the expanded uncertainty stated by the source.
# Key:
# [1] = refractive index (Na D-line) (dimensionless); xn = mol fraction of the nth substance listed; conditions: 313.15 K, 101 kPa, Liquid, Standard Abbe refractometry
# [2] = xn = mol fraction of the nth substance listed; conditions: 313.15 K, 101 kPa, Liquid; for speed of sound: Sing-around technique in a fixed-path interferometer; for mass density: Vibrating tube method
smiles,measurement,setting,value
Cc1ccccc1 [toluene] + CCCCCCC,refractive index,[1]; x2 = 0,1.48464 ± 0.00068
same,refractive index,[1]; x2 = 0.0496,1.47712 ± 0.00068
same,refractive index,[1]; x2 = 0.1037,1.46965 ± 0.00068
same,refractive index,[1]; x2 = 0.204,1.45586 ± 0.00068
same,refractive index,[1]; x2 = 0.406,1.43176 ± 0.00068
same,refractive index,[1]; x2 = 0.5045,1.42117 ± 0.00068
same,refractive index,[1]; x2 = 0.6016,1.41138 ± 0.00068
same,refractive index,[1]; x2 = 0.7011,1.40201 ± 0.00068
same,refractive index,[1]; x2 = 0.8029,1.39298 ± 0.00068
same,refractive index,[1]; x2 = 0.9019,1.38489 ± 0.00068
same,refractive index,[1]; x2 = 0.9517,1.38102 ± 0.00068
same,speed of sound,[2]; x2 = 0,1240.7 ± 2.2 m/s
same,speed of sound,[2]; x2 = 0.0496,1225.2 ± 2.2 m/s
same,speed of sound,[2]; x2 = 0.1037,1211.4 ± 2.2 m/s
same,speed of sound,[2]; x2 = 0.204,1185.7 ± 2.2 m/s
same,speed of sound,[2]; x2 = 0.406,1144.8 ± 2.2 m/s
same,speed of sound,[2]; x2 = 0.5045,1127.8 ± 2.2 m/s
same,speed of sound,[2]; x2 = 0.6016,1113.1 ± 2.2 m/s
same,speed of sound,[2]; x2 = 0.7011,1099.4 ± 2.2 m/s
same,speed of sound,[2]; x2 = 0.8029,1087 ± 2.2 m/s
same,speed of sound,[2]; x2 = 0.9019,1075.9 ± 2.2 m/s
same,speed of sound,[2]; x2 = 0.9517,1071.2 ± 2.2 m/s
same,mass density,[2]; x2 = 0,848 ± 0.2 kg/m3
same,mass density,[2]; x2 = 0.0496,835.7 ± 0.2 kg/m3
same,mass density,[2]; x2 = 0.1037,822.8 ± 0.2 kg/m3
same,mass density,[2]; x2 = 0.204,800.2 ± 0.2 kg/m3
same,mass density,[2]; x2 = 0.406,759.4 ± 0.3 kg/m3
same,mass density,[2]; x2 = 0.5045,741.5 ± 0.3 kg/m3
same,mass density,[2]; x2 = 0.6016,724.9 ± 0.3 kg/m3
same,mass density,[2]; x2 = 0.7011,709 ± 0.3 kg/m3
same,mass density,[2]; x2 = 0.8029,693.7 ± 0.3 kg/m3
same,mass density,[2]; x2 = 0.9019,679.7 ± 0.3 kg/m3
same,mass density,[2]; x2 = 0.9517,673 ± 0.3 kg/m3
Cc1ccccc1 [toluene] + CCCCCCCC,refractive index,[1]; x2 = 0,1.48509 ± 0.00068
same,speed of sound,[2]; x2 = 0,1240.7 ± 2.2 m/s
same,mass density,[2]; x2 = 0,848 ± 0.2 kg/m3
Cc1ccccc1 [toluene] + CCCCCCCCC,refractive index,[1]; x2 = 0,1.48464 ± 0.00068
same,speed of sound,[2]; x2 = 0,1240.7 ± 2.2 m/s
same,mass density,[2]; x2 = 0,848 ± 0.2 kg/m3
